Consider 88 compounds from a melting point compilation (Tetko et al.; mined from patent text by program, amines drawn as free bases though some values may be those of a salt).

Structures are written as SMILES. Where only a bound is given, the exact number is not on record here.

For `Cc1cc(C)c(CC(=O)c2ccc(C(C)C)c(OS(N)(=O)=O)c2C(C)C)c(C)c1`, the melting point (in general, the temperature, or range, at which the solid turns liquid) is 159 to 161 °C.
As for `COc1ccc(CCNC(=O)CCCCC(=O)NCCNc2ccccc2)cc1OC`, the figure is 109 to 111 °C.
The value for `CCCCOCCCNC(=O)C(C)(C(C)C)C(C)C` was 40 °C; that for `Cc1cc(Cl)cc(C(=O)Nc2ccnc(Cl)c2)n1` was 221 °C; that for `COC(=O)C1=C(C)NN=C(c2cccc(Cl)c2)C1c1ccccc1` (stereo not drawn) was 176 °C.
As for `C=CCOc1nc2c(c3ccccc13)c1cc(Cl)ccc1n2C`, the figure is 147 to 148 °C; as for `COc1ccc(-c2[nH]c3ncnc(Nc4cccc(Cl)c4)c3c2C)cc1`, 265 to 268 °C; as for `CCCCCCCCCCCCCC/C=C\CNC(=O)OC(C)(C)C`, 42 to 46 °C.
The compound `Cc1cccc(COCC2OC(n3cc(C(F)(F)F)c(=O)[nH]c3=O)CC2O)c1` (stereo not drawn) had a melting point of 169 to 171 °C.
The value for `COC(=O)c1ccc(-c2cc(C)n(Cc3ccccc3)n2)o1` was 65 to 66 °C.
The value for `C=CCOC1OC(C(O)CO)C(OCc2ccccc2)C1O` (stereo not drawn) was 84 to 85 °C; that for `O=C(NCC1CCCC1)c1ccc2c(Br)n[nH]c2c1` was 119 to 125 °C.
The value for `O=c1c2c(Cc3ccccc3)n[nH]c2c2cnccc2n1-c1ccccc1` was 284 to 287 °C; that for `Oc1cccc(CCc2nc(-c3ccccc3)c(-c3ccccc3)s2)c1` was 166 to 168 °C.
Consider `O=C(Nc1ccccc1S(=O)(=O)c1ccccc1)N[C@@H](Cc1ccc(NC(=O)c2ccc(Cl)nc2Cl)cc1)C(=O)O`, for which the melting point was determined as 207 °C.
As for `CCOC(=O)[C@H]1O[C@@H]1C(=O)N[C@H](COCC(=O)N(C)C)CC(C)C`, the figure is 64 to 65 °C.
The value for `CSc1nn2c(Cl)cc(C)nc2c1S(=O)(=O)c1ccccc1` was 163 to 165 °C; that for `CNc1nc(C)ccc1C(=O)OCC#N` was 154 to 157 °C.
On to `CN(c1ccc2ccccc2c1)S(=O)(=O)C(Cc1ccccc1)C(=O)NC(Cc1ccc(C#N)cc1)C(=O)N1CCCC1` (stereo not drawn), for which the melting point is 186 °C.
`CCOC(=O)c1c(N2CC3CC2CN3)c2cc(C)ccc2n(Cc2ccccc2)c1=O` (stereo not drawn) returned a melting point of over 72 °C.
As for `Cc1cc(S(=O)(=O)NC(C)C)c2c(C)ccc(C(C)C)cc1-2`, the figure is 128 to 130 °C; as for `COC(=O)C=CC(=O)N[C@@H](CO)c1ccccc1`, 75 to 77 °C.
The value for `COc1ccc2c3c1OC(c1ccccc1)N3C(=O)C1CCCN1C2=O` (stereo not drawn) was 157 to 160 °C; that for `N#Cc1c[nH]c2cccc(OCC3CO3)c12` (stereo not drawn) was 116 to 120 °C.
The value for `COc1cc(CN2C(=O)c3ccsc3CC2C(=O)O)cc(OC)c1OC` (stereo not drawn) was 208 °C; that for `O=C(c1ccccc1)c1ccc(NC(=O)c2cc(Cl)ccc2Cl)cc1` was 150 to 153 °C.
Turning to `CC(=O)c1ccc(OCCOc2ccc3ccccc3c2)c([N+](=O)[O-])c1`, the melting point lay within 158 to 160 °C.
The value for `FC1=CC(c2cccnc2)=CC2CCC(=S)NC12` (stereo not drawn) was 235 °C.
The compound `C[C@H](CO)Nc1nc(SCc2cccc(F)c2F)nc2[nH]c(=O)c(NCCO)nc12` registered a melting point of 197 to 199 °C.
As for `O=C(Cc1ccc(Cl)c(Cl)c1)N1CCN(Cc2ccccc2)CC1CO` (stereo not drawn), the figure is 148 to 150 °C; as for `O=C(Nc1ccc([N+](=O)[O-])cc1)c1ccc(F)cc1`, 117 to 118 °C.
Take `COC(=O)[C@@H](CCSC)NC(=O)C[C@H]1O[C@H](c2cccc(OC)c2OC)c2cc(Cl)ccc2N(CC(C)(C)CO)C1=O`: the melting point lay within 142 to 143 °C.
Regarding `CCOC(C)n1c(C(=O)C(F)(F)F)nc(-c2ccc(OC)cc2)c1-c1ccc(OC)cc1` (stereo not drawn), the melting point lay within 124 to 126 °C.
The value for `CC(C)(C=O)S(=O)(=O)c1ccccc1` was 103 to 104 °C.
The value for `NC1=NC(c2ccc(OC(F)(F)F)cc2)(c2cccc(-c3cncc(F)c3)c2)C2=NCCON12` (stereo not drawn) was 120 to 135 °C.
The value for `CCNC(=Nc1ccccc1N1CCOCC1)NC` was 118 to 119 °C; that for `CSc1ccc(Br)cn1` was 39 to 40 °C; that for `CCCCc1cc(OCc2ccc(-c3ccccc3C(=O)OC)cc2)c2ccccc2n1` was 105 °C.
The compound `COCCNS(=O)(=O)c1cc2[nH]c(=O)c(=O)[nH]c2cc1[N+](=O)[O-]` came in with a melting point of 320 to 321 °C.
The value for `[N-]=[N+]=C1CCCCCCCCCCC1=O` was 43 to 44 °C; that for `c1ccc(-c2ccc(-c3cccs3)s2)cc1` was 116 to 118 °C.
As for `Cc1cc(N2CCN(c3ccccc3)CC2)c(C#N)c(=O)[nH]1`, the figure is over 270 °C.
As for `CCn1nc(-c2ncc(NCc3ccc(OC)cc3)nc2-c2ccccc2)ccc1=O`, the figure is 148 to 150 °C.
`COC(=O)/C=C(\c1ccccc1)c1ccc2c(c1)C(C)(C)OC(=O)N2` came in with a melting point of 181 to 182 °C.
The value for `CNC(=O)[C@H](C)C[C@H](O)[C@H](CC1CCCCC1)NC(=O)[C@H](Cc1cscn1)NC(=O)OC(C)(C)C` was 158 to 160 °C; that for `CC(C)(C)Sc1c(CC(C)(C)C(=O)O)n(Cc2ccc(Cl)cc2)c2ccc(OCc3cnccn3)cc12` was 173 to 175 °C; that for `Cn1ncnc1COc1nn2c(-c3cc(F)ccc3F)nncc2c1-c1ccccc1` was 199 °C.
The value for `CCOc1cc2c(C)c(CCN3CCN(c4ccccc4)CC3)c(=O)oc2cc1OC` was 164 to 165 °C.
With `Cc1c(F)c(OC(F)F)cc2c1c(C#N)c(-c1ccc(S(=O)(=O)N[C@@H](C)C(F)(F)F)cn1)n2C1CCC1`, the melting point was in the range of 182 to 186 °C.
The value for `CCN(CC)CCCNC(=O)C1=C(O)c2ccccc2S(=O)(=O)N1C` was 107 to 110 °C.
As for `CNC(=O)OC1CC(C)(C)N(C)C(C)(C)C1`, the figure is 96 to 97 °C; as for `O=C(CN1CCN(C(c2ccccc2)c2ccccc2)CC1)Nc1ccc2ncnn2n1`, 203 to 204 °C.
The compound `CCCc1nn(-c2ccc(C(F)(F)F)cn2)cc1CCCOc1ccccc1CC(=O)O` came in with a melting point of 100 to 101 °C.
As for `N#Cc1ccc(CC23CCNN2C(=O)N(c2cc(Cl)nc(Cl)c2)C3=O)cc1` (stereo not drawn), the figure is 187 °C; as for `O=C1c2ccccc2C(=O)N1CC(=O)N1c2ccccc2N(CCc2ccccc2)C(=O)[C@H]2CCC[C@H]21` (relative stereo), 178 to 179 °C.
As for `CN1CCC(=C2c3ccccc3Sc3ccc(SC(F)(F)F)cc32)CC1`, the figure is 104 to 106 °C; as for `CCNC(=O)Oc1cccc(NC(=O)C=C(C)OC)c1`, 183 °C.
As for `Cc1cc(OC(=O)c2ccc(Cl)cc2)n(C)n1`, the figure is 100 to 101 °C; as for `CCOC(=O)c1conc1-c1ccc(Cl)cc1`, 43 to 45 °C; as for `COc1ccc(C2C(C(=O)c3ccc(OC(F)(F)F)cc3)=C(O)C(=O)N2c2ccc(C)nn2)cc1` (stereo not drawn), 279 °C.
In turn, `COc1ccc(CCC2OC(=O)NC2=O)cc1O` (stereo not drawn) returned a melting point of 121 to 122 °C.
As for `COc1cc(C=O)cc(OC)c1N`, the figure is 94 to 96 °C; as for `N#CCCCCc1csc(NC(=N)N)n1`, 104 to 105 °C; as for `C/C(=C\c1ccc(C(C)(C)C)cc1)CNc1cccc(-c2ccnc3c(C(=O)c4cccs4)cnn23)c1`, 135 to 137 °C.
As to `N#CC1(N2CCCC2)CCC2(CC1)OCCO2`, the melting point lay within 65 to 67 °C.
The value for `C#Cc1cnc(OCCOc2ncnc(NS(=O)(=O)c3ccc(C(C)(C)C)cc3)c2-c2ccc(C)cc2)nc1` was 207 to 210 °C; that for `CCCC[C@H](NC(=O)[C@H](CC(C)C)NC(=O)c1ccc(C(F)(F)F)cc1)C(=O)CSCc1ccco1` was 121 to 123 °C.
The compound `COc1ccc(CC2CCN(C(=O)C(=O)Nc3ccc4[nH]c(=O)oc4c3)CC2)cc1` showed a melting point of 193 to 197 °C.
`C/C(=C\CNc1ncnc2nc(N(C)C)[nH]c12)CO` gave a melting point of 245 to 249 °C.
`CCCCCCC(C)(C)c1cc(O)c(C2=C(CO)CCC(C)C2)c(O)c1` (stereo not drawn) displayed a melting point of 155 to 156 °C.
As for `C=C(C)C(=O)NNc1ccnc2c(NC(=O)c3c(Cl)cccc3Cl)cccc12`, the figure is 277 to 280 °C; as for `CCOC(=O)c1oc2ccc(Cc3ccc(O)cc3)c(O)c2c1C`, 182 to 184 °C; as for `CCN(C(=O)C1(C(=O)O)CC1)c1ccc(Cl)cc1`, 99 to 101 °C.
The value for `Cc1onc(OCC(=O)NCCO[N+](=O)[O-])c1Br` was 87 to 88 °C.
On to `CC1(c2ccccc2)CN(C(=O)Nc2ccc(Cl)cc2)N=C1c1ccc(Cl)cc1` (stereo not drawn), for which the melting point lay within 151 to 158 °C.
The value for `COc1cc(-n2ccc(C)n2)ccc1C(=O)N1Cc2cccn2Cc2ccccc21` was 92 to 94 °C.
The value for `O=C(CC(O)(c1cc(Cl)cc(Cl)c1)C(F)(F)F)c1ccc(F)c(Br)c1` (stereo not drawn) was 134 to 135 °C; that for `CN1Cc2c(F)ccc3scc(c23)S1(=O)=O` was 175 °C; that for `CCCCOC1c2ccccc2C(=O)N(CC2CC2)C1(/C=C/C(=O)O)CNC(=O)OC(C)(C)C` (stereo not drawn) was 229 to 230 °C.
As for `CC(=O)SCC(C(=O)N[C@@H](Cc1c[nH]c2ccccc12)C(=O)O)C(F)(F)F` (stereo partly drawn), the figure is 140 to 143 °C; as for `C=CCNc1nc(NC(C)C)nc2ccc([N+](=O)[O-])cc12`, 150 to 151 °C; as for `CCOC(=O)C1=C(C)NC(COC(C)=O)=C(C(=O)OCC)C1c1ccccc1Cl` (stereo not drawn), 98 °C.
In the case of `COc1cc(Cn2cccc3ncnc2-3)ccc1C(=O)N(C(C)C)C1CCCCC1`, the melting point is 98 to 100 °C.
As for `Cn1cc(C=CC(=O)Nc2ccc(O)cc2)c([N+](=O)[O-])n1`, the figure is 290 to 293 °C; as for `O=[N+]([O-])c1cc2nc(O)c(O)nc2c2[nH]ncc12`, over 300 °C.
As for `COc1ccc(-c2nc(C)[nH]c3cc(-c4ccccc4)nc2-3)cc1`, the figure is 225 to 227 °C; as for `OCc1ccc2c(ccc3c4ccccc4ccc23)c1`, 261 to 262 °C; as for `CCC(=NOCCO)c1ccc(-c2ccccc2)cc1`, 76 °C.
